Where “and” joins values, the source holds several entries; their conditions need not be identical. Identical values can stand only once. Inconclusive results and toxic doses are left out.
Tested on: L1210 leukemia ip in BDF1 mice, survival T/C
Assay: NCI In Vivo Anticancer Drug Screen. Data for tumor model L1210 Leukemia (intraperitoneal) in B6D2F1 (BDF1) mice
Conditions: endpoint: mean survival time, higher = longer survival
Summary of the method: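 Tumor was transplanted into mice, which were then dosed with test compound or vehicle alone. Survival was recorded for each group, and the treated figure was expressed relative to the control figure.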

[1] = dose: 100.0 mg/kg/injection, schedule: Q01DX009 (ip), vehicle: saline with Tween-80
[2] = dose: 100.0 mg/kg/injection, schedule: Q04DX003 (ip), vehicle: saline with Tween-80
[3] = dose: 200.0 mg/kg/injection, schedule: Q01DX009 (ip), vehicle: saline with Tween-80
[4] = dose: 200.0 mg/kg/injection, schedule: Q04DX003 (ip), vehicle: saline with Tween-80
[5] = dose: 400.0 mg/kg/injection, schedule: Q01DX009 (ip), vehicle: saline with Tween-80
[6] = dose: 400.0 mg/kg/injection, schedule: Q04DX003 (ip), vehicle: saline with Tween-80
[7] = dose: 100.0 mg/kg/injection, schedule: Q04DX003 (ip), vehicle: Klucel (hydroxypropylcellulose) (HPC)
[8] = dose: 200.0 mg/kg/injection, schedule: Q04DX003 (ip), vehicle: Klucel (hydroxypropylcellulose) (HPC)
[9] = dose: 400.0 mg/kg/injection, schedule: Q04DX003 (ip), vehicle: Klucel (hydroxypropylcellulose) (HPC)
[10] = dose: 100.0 mg/kg/injection, schedule: Q04DX002 (ip), vehicle: saline with Tween-80
[11] = dose: 200.0 mg/kg/injection, schedule: Q04DX002 (ip), vehicle: saline with Tween-80
[12] = dose: 400.0 mg/kg/injection, schedule: Q04DX002 (ip), vehicle: saline with Tween-80
[13] = dose: 100.0 mg/kg/injection, schedule: Q01DX001 (ip), vehicle: saline
[14] = dose: 200.0 mg/kg/injection, schedule: Q01DX001 (ip), vehicle: saline
[15] = dose: 400.0 mg/kg/injection, schedule: Q01DX001 (ip), vehicle: saline
[16] = dose: 100.0 mg/kg/injection, schedule: Q01DX001 (ip), vehicle: Klucel (hydroxypropylcellulose) (HPC)
[17] = dose: 200.0 mg/kg/injection, schedule: Q01DX001 (ip), vehicle: Klucel (hydroxypropylcellulose) (HPC)
[18] = dose: 100.0 mg/kg/injection, schedule: Q04DX002 (ip), vehicle: Klucel (hydroxypropylcellulose) (HPC)

For `Cn1cnc(N)c1S(=O)(=O)Nc1cccc2ccccc12`, the T/C (dose: 100.0 mg/kg/injection, schedule: Q04DX003 (ip), vehicle: other) was 100 % of control, the T/C (dose: 200.0 mg/kg/injection, schedule: Q04DX003 (ip), vehicle: other) was 102 % of control and the T/C (dose: 400.0 mg/kg/injection, schedule: Q04DX003 (ip), vehicle: other) was 101 % of control.
`Cc1noc2nc(Cl)cnc12` was tested, and the T/C [1] was 109 % of control, the T/C [2] was 94 % of control and the T/C [3] was 110 % of control. The T/C [4] was 102 % of control, the T/C [5] was 104 % of control and the T/C [6] was 94 % of control.
For `O=C(/C=C(/NC1CCCCC1)c1ccccc1)c1ccccc1`, the T/C [7] was 98 % of control, the T/C [8] was 102 % of control and the T/C [9] was 100 % of control.
For `O=C(NCCCCCCCNC(=O)Nc1ccc(C2=NCCCN2)cc1)Nc1ccc(C2=NCCCN2)cc1`, the T/C (dose: 3.75 mg/kg/injection, schedule: Q01DX Z (ip), vehicle: carboxymethylcellulose (CMC)) was 98 % of control, the T/C (dose: 7.5 mg/kg/injection, schedule: Q01DX Z (ip), vehicle: carboxymethylcellulose (CMC)) was 102 % of control and the T/C (dose: 15.0 mg/kg/injection, schedule: Q01DX Z (ip), vehicle: carboxymethylcellulose (CMC)) was 120 % of control. For the same compound, the T/C (dose: 30.0 mg/kg/injection, schedule: Q01DX Z (ip), vehicle: carboxymethylcellulose (CMC)) was 89 % of control.
In the case of `CCCCCCCCCCCCCCCCCCCC(=O)CCl`, the T/C (dose: 100.0 mg/kg/injection, schedule: Q04DX002 (sc), vehicle: olive oil, sesame oil, peanut oil) is reported as 104 % of control, the T/C (dose: 200.0 mg/kg/injection, schedule: Q04DX002 (sc), vehicle: olive oil, sesame oil, peanut oil) is reported as 100 % of control and the T/C (dose: 400.0 mg/kg/injection, schedule: Q04DX002 (sc), vehicle: olive oil, sesame oil, peanut oil) is reported as 107 % of control.
With `CCC(=O)c1ccc(OC(=O)Nc2ccc(Cl)cc2[N+](=O)[O-])cc1` the T/C [1] was 100 % of control and 92 % of control, the T/C [10] was 97 % of control and 113 % of control and the T/C [2] was 102 % of control. The T/C [3] was 96 % of control and 103 % of control, the T/C [11] was 97 % of control and 91 % of control and the T/C [4] was 95 % of control. For the same compound, the T/C [5] was 92 % of control, the T/C [12] was 95 % of control and 92 % of control and the T/C [6] was 97 % of control.
With `CCCC[Si](C)(C)CCCC` the T/C [13] was 103 % of control, the T/C [14] was 105 % of control and the T/C [15] was 100 % of control.
In the case of `COc1ccc2nc3cc(Cl)ccc3c(NCCNCCNCCNc3c4ccc(Cl)cc4nc4ccc(OC)cc34)c2c1`, the T/C (dose: 6.25 mg/kg/injection, schedule: Q01DX009 (ip), vehicle: saline with Tween-80) is reported as 100 % of control, the T/C (dose: 12.5 mg/kg/injection, schedule: Q01DX009 (ip), vehicle: saline with Tween-80) is reported as 91 % of control and the T/C (dose: 25.0 mg/kg/injection, schedule: Q01DX009 (ip), vehicle: saline with Tween-80) is reported as 101 % of control. The T/C [1] was 107 % of control.
In the case of `C/C(=C\C(C)(C)C(C)(C)C)C(C)(C)C`, the T/C (dose: 50.0 mg/kg/injection, schedule: Q04DX002 (ip), vehicle: saline with Tween-80) is reported as 100 % of control, the T/C [10] is reported as 95 % of control and the T/C [11] is reported as 92 % of control. For the same compound, the T/C [12] was 92 % of control.
With `CC1(C)C(=C(C#N)C#N)C(C)(C)C1=C(C#N)C#N` the T/C [13] was 114 % of control, the T/C [14] was 96 % of control and the T/C [15] was 90 % of control.
For `CCCCCCCCCCCSc1ccc2ccccc2c1`, the T/C [16] was 95 % of control and the T/C [17] was 90 % of control.
In the case of `Cc1ccc([N+](=O)[O-])cc1NC(=O)Oc1ccc2c(C)cc(=O)oc2c1`, the T/C [18] is reported as 101 % of control and the T/C (dose: 400.0 mg/kg/injection, schedule: Q04DX002 (ip), vehicle: Klucel (hydroxypropylcellulose) (HPC)) is reported as 95 % of control.
In the case of `CS(=O)(=O)OCC(=O)NCC(O)CNC(=O)COS(C)(=O)=O`, the T/C (dose: 75.0 mg/kg/injection, schedule: Q01DX015 (ip), vehicle: saline) is reported as 151 % of control, the T/C (dose: 80.0 mg/kg/injection, schedule: Q01DX009 (ip), vehicle: saline) is reported as 153 % of control and the T/C (dose: 120.0 mg/kg/injection, schedule: Q01DX009 (ip), vehicle: saline) is reported as 180 % of control. For the same compound, the T/C (dose: 150.0 mg/kg/injection, schedule: Q01DX015 (ip), vehicle: saline) was 164 % of control and the T/C (dose: 180.0 mg/kg/injection, schedule: Q01DX009 (ip), vehicle: saline) was 156 % of control and 164 % of control.
`CC(C)NC(C)c1c[nH]c2ccccc12` (stereo unspecified) was tested, and the T/C (dose: 12.5 mg/kg/injection, schedule: Q04DX003 (ip), vehicle: Klucel (hydroxypropylcellulose) (HPC)) was 101 % of control, the T/C (dose: 25.0 mg/kg/injection, schedule: Q04DX003 (ip), vehicle: Klucel (hydroxypropylcellulose) (HPC)) was 97 % of control and the T/C (dose: 50.0 mg/kg/injection, schedule: Q04DX003 (ip), vehicle: Klucel (hydroxypropylcellulose) (HPC)) was 103 % of control.
In the case of `Cc1cc(NS(=O)(=O)c2ccc(N=Nc3c(N)n(C)c(=O)n(C)c3=O)cc2)nc(C)n1`, the T/C (dose: 100.0 mg/kg/injection, schedule: Q01DX001 (ip), vehicle: carboxymethylcellulose (CMC)) is reported as 89 % of control, the T/C (dose: 200.0 mg/kg/injection, schedule: Q01DX001 (ip), vehicle: carboxymethylcellulose (CMC)) is reported as 104 % of control and the T/C (dose: 400.0 mg/kg/injection, schedule: Q01DX001 (ip), vehicle: carboxymethylcellulose (CMC)) is reported as 101 % of control.
With `CNC(=O)NCC1OC(n2cnc3c(N)ncnc32)C(O)C1O` (stereo unspecified) the T/C [16] was 98 % of control, the T/C [17] was 98 % of control and the T/C (dose: 400.0 mg/kg/injection, schedule: Q01DX001 (ip), vehicle: Klucel (hydroxypropylcellulose) (HPC)) was 95 % of control.
With `Nc1ccc(S(=O)(=O)Nc2ccc(S(=O)(=O)O)c3ccc(S(=O)(=O)O)cc23)cc1` the T/C (dose: 75.0 mg/kg/injection, schedule: Q04DX003 (ip), vehicle: Klucel (hydroxypropylcellulose) (HPC)) was 95 % of control, the T/C (dose: 150.0 mg/kg/injection, schedule: Q04DX003 (ip), vehicle: Klucel (hydroxypropylcellulose) (HPC)) was 93 % of control and the T/C (dose: 300.0 mg/kg/injection, schedule: Q04DX003 (ip), vehicle: Klucel (hydroxypropylcellulose) (HPC)) was 98 % of control.
For `Cc1ccc(C(=O)OCC2OC(Cl)CC2OC(=O)c2ccc(C)cc2)cc1` (stereo unspecified), the T/C (dose: 50.0 mg/kg/injection, schedule: Q04DX003 (ip), vehicle: saline) was 107 % of control, the T/C (dose: 100.0 mg/kg/injection, schedule: Q04DX003 (ip), vehicle: saline) was 102 % of control and the T/C (dose: 200.0 mg/kg/injection, schedule: Q04DX003 (ip), vehicle: saline) was 91 % of control. The T/C (dose: 400.0 mg/kg/injection, schedule: Q04DX003 (ip), vehicle: saline) was 98 % of control.
With `N#C/C(=C\c1ccccc1)C(=O)Nc1ccccc1` the T/C [7] was 94 % of control, the T/C [8] was 92 % of control and the T/C [9] was 92 % of control.
With `O=C1c2ccccc2C(=Cc2c3ccccc3cc3ccccc23)c2ccccc21` the T/C (dose: 25.0 mg/kg/injection, schedule: Q04DX002 (ip), vehicle: Klucel (hydroxypropylcellulose) (HPC)) was 97 % of control, the T/C (dose: 50.0 mg/kg/injection, schedule: Q04DX002 (ip), vehicle: Klucel (hydroxypropylcellulose) (HPC)) was 106 % of control and the T/C [18] was 94 % of control.
For `Cc1cc2oc(/C=N/NC(N)=S)c(C)c2cc1C`, the T/C (dose: 100.0 mg/kg/injection, schedule: Q01DX009 (ip), vehicle: Klucel (hydroxypropylcellulose) (HPC)) was 100 % of control, the T/C (dose: 200.0 mg/kg/injection, schedule: Q01DX009 (ip), vehicle: Klucel (hydroxypropylcellulose) (HPC)) was 99 % of control and the T/C (dose: 400.0 mg/kg/injection, schedule: Q01DX009 (ip), vehicle: Klucel (hydroxypropylcellulose) (HPC)) was 105 % of control.
In the case of `O=C(c1ccccc1)C(C(C(=O)c1ccccc1)N1CCOCC1)N1CCOCC1` (stereo unspecified), the T/C (dose: 50.0 mg/kg/injection, schedule: Q01DX001 (ip), vehicle: saline) is reported as 94 % of control, the T/C [13] is reported as 94 % of control and the T/C [14] is reported as 102 % of control. For the same compound, the T/C [15] was 94 % of control.
With `CN(C)Cc1cc(C(C)(C)C)ccc1-c1ccc(C(C)(C)C)cc1CN(C)C` the T/C (dose: 12.5 mg/kg/injection, schedule: Q01DX009 (ip), vehicle: gum acacia) was 91 % of control, the T/C (dose: 25.0 mg/kg/injection, schedule: Q01DX009 (ip), vehicle: gum acacia) was 96 % of control and the T/C (dose: 50.0 mg/kg/injection, schedule: Q01DX009 (ip), vehicle: gum acacia) was 86 % of control.
`C1CCC2C(C1)CCCC2C(C1CCCC2CCCCC21)C1CCCC2CCCCC21` (stereo unspecified) was tested, and the T/C (dose: 100.0 mg/kg/injection, schedule: Q01DX001 (ip), vehicle: saline with Tween-80) was 90 % of control, the T/C (dose: 200.0 mg/kg/injection, schedule: Q01DX001 (ip), vehicle: saline with Tween-80) was 90 % of control and the T/C (dose: 400.0 mg/kg/injection, schedule: Q01DX001 (ip), vehicle: saline with Tween-80) was 90 % of control.
